# Patent US8710089B2, “Triazole derivatives as ghrelin analogue ligands of growth hormone secretagogue receptors” (Zentaris GmbH, priority 2005, dated 2014)
# Target: T1, human GHS-R 1a (Homo sapiens, UniProt Q92847)
# T1 construct: expressed in transfected cells; host or cells: LLC PK-1 porcine renal epithelial cells (ECACC No. 86121112), isolated plasma membranes
# Assay: GHS-R 1a receptor-ligand binding assay (membrane preparations from transfected LLC PK-1 cells)
# Details: displacement of 125I-His9-ghrelin (60 pM); membranes of LLC PK-1 cells transfected with human GHS-R 1a; mean of at least two independent experiments in triplicates
# Description: (J. Med. […] Med. Chem. 2003, 46: 1191-1203), were incubated in homogenization buffer HB [50 mM Tris (pH 7.3), 5 mM MgCl2, 2.5 mM EDTA, and 30 μg/mL bacitracin (Sigma)] for 60 min at 25° C. (steady-state conditions) with 60 pM ^125I-[…]-ghrelin (Amersham) in the presence or absence of competing compounds (compounds of the invention). […] Nonspecific binding was defined using an excess (10^-6 M) of ghrelin. The binding reaction was stopped by addition of 4 mL of ice-cold HB followed by rapid filtration over Whatman GP/C filters presoaked with 0.5% polyethyleneimine to prevent excessive binding of radioligand to the filters. […] IC50 values given are the mean of at least two independent experiments performed in triplicates.
# T1 sequence (Q92847 whole entry): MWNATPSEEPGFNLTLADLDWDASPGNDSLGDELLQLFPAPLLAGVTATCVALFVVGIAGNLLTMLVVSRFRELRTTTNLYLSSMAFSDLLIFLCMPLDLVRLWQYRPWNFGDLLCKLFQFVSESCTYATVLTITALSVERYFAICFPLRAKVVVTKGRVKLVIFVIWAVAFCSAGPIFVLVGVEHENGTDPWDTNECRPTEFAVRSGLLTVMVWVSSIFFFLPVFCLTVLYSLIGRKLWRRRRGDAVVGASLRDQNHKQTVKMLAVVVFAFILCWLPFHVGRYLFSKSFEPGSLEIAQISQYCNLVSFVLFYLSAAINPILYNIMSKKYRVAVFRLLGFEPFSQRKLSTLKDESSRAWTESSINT
row,SMILES,IC50
1,"CC(C)(N)C(=O)N[C@H](Cc1c[nH]c2ccccc12)c1nnc(CCc2ccccc2)n1Cc1cccc2ccccc12 [compound 27, (R)—N-(2-(1H-indol-3-yl)-1-(4-(naphthalen-1-ylmethyl)-5-phenethyl-4H-1,2,4-triazol-3-yl)ethyl)-2-amino-2-methylpropanamide]",126 nM
2,"CC(C)(N)C(=O)N[C@H](Cc1c[nH]c2ccccc12)c1nnc(CCc2c[nH]c3ccccc23)n1Cc1ccc(Cl)c(Cl)c1 [compound 28, (R)—N-(1-(5-(2-(1H-indol-3-yl)ethyl)-4-(3,4-dichlorobenzyl)-4H-1,2,4-triazol-3-yl)-2-(1H-indol-3-yl)ethyl)-2-amino-2-methylpropanamide]",79 nM
3,"CC(C)(N)C(=O)N[C@H](Cc1c[nH]c2ccccc12)c1nnc(CCc2c[nH]c3ccccc23)n1Cc1ccc(F)cc1 [compound 29, (R)—N-(1-(5-(2-(1H-indol-3-yl)ethyl)-4-(4-fluorobenzyl)-4H-1,2,4-triazol-3-yl)-2-(1H-indol-3-yl)ethyl)-2-amino-2-methylpropanamide]",66 nM
4,"COc1ccc(Cn2c(CCc3c[nH]c4ccccc34)nnc2[C@@H](Cc2c[nH]c3ccccc23)NC(=O)C2CCCCN2)c(OC)c1 (stereo partly drawn) [compound 36, (R)—N-(1-(5-(2-(1H-indol-3-yl)ethyl)-4-(2,4-dimethoxybenzyl)-4H-1,2,4-triazol-3-yl)-2-(1H-indol-3-yl)ethyl)piperidine-2-carboxamide]",53 nM
5,"Cc1ccc(Cn2c(CCc3ccccc3)nnc2[C@@H](Cc2c[nH]c3ccccc23)NC(=O)C(C)(C)N)cc1 [compound 37, (R)—N-(1-(4-(4-methylbenzyl)-5-phenethyl-4H-1,2,4-triazol-3-yl)-2-(1H-indol-3-yl)ethyl)-2-amino-2-methylpropanamide]",136 nM
6,"COc1ccc(Cn2c(CCc3ccccc3)nnc2[C@@H](Cc2c[nH]c3ccccc23)NC(=O)[C@@H]2C[C@@H](O)CN2)cc1 [compound 40, (2S,4R)—N—((R)-1-(4-(4-methoxybenzyl)-5-phenethyl-4H-1,2,4-triazol-3-yl)-2-(1H-indol-3-yl)ethyl)-4-hydroxypyrrolidine-2-carboxamide]",249 nM
7,"CCc1ccc(Cn2c(CCc3ccccc3)nnc2[C@@H](Cc2c[nH]c3ccccc23)NC(=O)C(C)(C)N)cc1 [compound 43, (R)—N-(1-(4-(4-ethylbenzyl)-5-phenethyl-4H-1,2,4-triazol-3-yl)-2-(1H-indol-3-yl)ethyl)-2-amino-2-methylpropanamide]",44 nM
8,"COc1ccc(Cn2c(CCc3ccccc3)nnc2[C@@H](Cc2c[nH]c3ccccc23)NC(=O)CCN)cc1 [compound 56, (R)—N-(1-(4-(4-methoxybenzyl)-5-phenethyl-4H-1,2,4-triazol-3-yl)-2-(1H-indol-3-yl)ethyl)-3-aminopropanamide]",59 nM
9,"COc1ccc(Cn2c(CCc3ccccc3)nnc2[C@@H](Cc2c[nH]c3ccccc23)NC(=O)[C@H](C)N)cc1 [compound 57, (S)—N—((R)-1-(4-(4-methoxybenzyl)-5-phenethyl-4H-1,2,4-triazol-3-yl)-2-(1H-indol-3-yl)ethyl)-2-aminopropanamide]",140 nM
10,"COc1ccc(Cn2c(CCc3ccccc3)nnc2[C@@H](Cc2c[nH]c3ccccc23)NC(=O)CCc2cccnc2)cc1 [compound 59, (R)—N-(1-(4-(4-methoxybenzyl)-5-phenethyl-4H-1,2,4-triazol-3-yl)-2-(1H-indol-3-yl)ethyl)-3-(pyridin-3-yl)propanamide]",173 nM
11,"O=C(Cc1ccccn1)N[C@H](Cc1c[nH]c2ccccc12)c1nnc(CCc2c[nH]c3ccccc23)n1Cc1ccccc1 [compound 60, (R)—N-(1-(5-(2-(1H-indol-3-yl)ethyl)-4-benzyl-4H-1,2,4-triazol-3-yl)-2-(1H-indol-3-yl)ethyl)-2-(pyridin-2-yl)acetamide]",61 nM
12,"COc1ccc(Cn2c(CCc3ccccc3)nnc2[C@@H](Cc2c[nH]c3ccccc23)NC(=O)[C@H]2CCCCN2)c(OC)c1 [compound 63, (R)—N—((R)-1-(4-(2,4-dimethoxybenzyl)-5-phenethyl-4H-1,2,4-triazol-3-yl)-2-(1H-indol-3-yl)ethyl)piperidine-2-carboxamide]",210 nM
13,"COc1ccc(Cn2c(CCc3ccccc3)nnc2[C@@H](Cc2c[nH]c3ccccc23)NC(=O)c2ccncc2)c(OC)c1 [compound 65, (R)—N-(1-(4-(2,4-dimethoxybenzyl)-5-phenethyl-4H-1,2,4-triazol-3-yl)-2-(1H-indol-3-yl)ethyl)isonicotinamide]",58 nM

# These reach a lower IC50. Values come first.
row,IC50,SMILES
1,10.3 nM,"COc1ccc(Cn2c(CCc3c[nH]c4ccccc34)nnc2[C@@H](Cc2c[nH]c3ccccc23)NC(=O)C2CCCNC2)c(OC)c1 (stereo partly drawn) [compound 32, (R)—N-(1-(5-(2-(1H-indol-3-yl)ethyl)-4-(2,4-dimethoxybenzyl)-4H-1,2,4-triazol-3-yl)-2-(1H-indol-3-yl)ethyl)piperidine-3-carboxamide]"
2,30 nM,"Cc1ccc(Cn2c(CCCc3ccccc3)nnc2[C@@H](Cc2c[nH]c3ccccc23)NC(=O)C(C)(C)N)cc1 [compound 33, (R)—N-(1-(4-(4-methylbenzyl)-5-(3-phenylpropyl)-4H-1,2,4-triazol-3-yl)-2-(1H-indol-3-yl)ethyl)-2-amino-2-methylpropanamide]"
3,28 nM,"Cc1ccc(Cn2c(CCc3c[nH]c4ccccc34)nnc2[C@@H](Cc2c[nH]c3ccccc23)NC(=O)C(C)(C)N)cc1 [compound 34, (R)—N-(1-(5-(2-(1H-indol-3-yl)ethyl)-4-(4-methylbenzyl)-4H-1,2,4-triazol-3-yl)-2-(1H-indol-3-yl)ethyl)-2-amino-2-methylpropanamide]"
4,16 nM,"COc1ccc(Cn2c(CCc3ccccc3)nnc2[C@@H](Cc2c[nH]c3ccccc23)NC(=O)[C@H]2CCCNC2)cc1 [compound 41, (S)—N—((R)-1-(4-(4-methoxybenzyl)-5-phenethyl-4H-1,2,4-triazol-3-yl)-2-(1H-indol-3-yl)ethyl)piperidine-3-carboxamide]"
5,7 nM,"COc1ccc(Cn2c(CCc3ccccc3)nnc2[C@@H](Cc2c[nH]c3ccccc23)NC(=O)[C@@H]2CCCNC2)cc1 [compound 42, (R)—N—((R)-1-(4-(4-methoxybenzyl)-5-phenethyl-4H-1,2,4-triazol-3-yl)-2-(1H-indol-3-yl)ethyl)piperidine-3-carboxamide]"
6,0.3 nM,"COc1ccc(Cn2c(CCc3c[nH]c4ccccc34)nnc2[C@@H](Cc2c[nH]c3ccccc23)NC(=O)C2CCNCC2)cc1 [compound 45, (R)—N-(1-(5-(2-(1H-indol-3-yl)ethyl)-4-(4-methoxybenzyl)-4H-1,2,4-triazol-3-yl)-2-(1H-indol-3-yl)ethyl)piperidine-4-carboxamide]"
7,12 nM,"COc1ccc(Cn2c(CCc3ccccc3)nnc2[C@@H](Cc2c[nH]c3ccccc23)NC(=O)[C@@H]2CCCN2)cc1 [compound 46, (S)—N—((R)-1-(4-(4-methoxybenzyl)-5-phenethyl-4H-1,2,4-triazol-3-yl)-2-(1H-indol-3-yl)ethyl)pyrrolidine-2-carboxamide]"
8,3 nM,"COc1ccc(Cn2c(CCc3ccccc3)nnc2[C@@H](Cc2c[nH]c3ccccc23)NC(=O)Cc2ccccn2)cc1 [compound 51, (R)—N-(1-(4-(4-methoxybenzyl)-5-phenethyl-4H-1,2,4-triazol-3-yl)-2-(1H-indol-3-yl)ethyl)-2-(pyridin-2-yl)acetamide]"
9,18 nM,"COc1ccc(Cn2c(CCc3ccccc3)nnc2[C@@H](Cc2c[nH]c3ccccc23)NC(=O)C2CCCCC2)cc1 [compound 53, (R)—N-(1-(4-(4-methoxybenzyl)-5-phenethyl-4H-1,2,4-triazol-3-yl)-2-(1H-indol-3-yl)ethyl)cyclohexanecarboxamide]"
10,35 nM,"O=C(N[C@H](Cc1c[nH]c2ccccc12)c1nnc(CCc2c[nH]c3ccccc23)n1Cc1ccccc1)C1CCNCC1 [compound 54, (R)—N-(1-(5-(2-(1H-indol-3-yl)ethyl)-4-benzyl-4H-1,2,4-triazol-3-yl)-2-(1H-indol-3-yl)ethyl)piperidine-4-carboxamide]"
11,29 nM,"COc1ccc(Cn2c(CCc3ccccc3)nnc2[C@@H](Cc2c[nH]c3ccccc23)NC(=O)Cc2cccnc2)cc1 [compound 58, (R)—N-(1-(4-(4-methoxybenzyl)-5-phenethyl-4H-1,2,4-triazol-3-yl)-2-(1H-indol-3-yl)ethyl)-2-(pyridin-3-yl)acetamide]"
12,34 nM,"COc1ccc(Cn2c(CCc3c[nH]c4ccccc34)nnc2[C@@H](Cc2c[nH]c3ccccc23)NC(=O)Cc2ccccn2)c(OC)c1 [compound 61, (R)—N-(1-(5-(2-(1H-indol-3-yl)ethyl)-4-(2,4-dimethoxybenzyl)-4H-1,2,4-triazol-3-yl)-2-(1H-indol-3-yl)ethyl)-2-(pyridin-2-yl)acetamide]"
13,0.9 nM,"COc1ccc(Cn2c(CCc3ccccc3)nnc2[C@@H](Cc2c[nH]c3ccccc23)NC(=O)C2CCNCC2)c(OC)c1 [compound 62, (R)—N-(1-(4-(2,4-dimethoxybenzyl)-5-phenethyl-4H-1,2,4-triazol-3-yl)-2-(1H-indol-3-yl)ethyl)piperidine-4-carboxamide]"
14,8 nM,"COc1ccc(Cn2c(CCc3ccccc3)nnc2[C@@H](Cc2c[nH]c3ccccc23)NC(=O)c2cnccn2)c(OC)c1 [compound 66, (R)—N-(1-(4-(2,4-dimethoxybenzyl)-5-phenethyl-4H-1,2,4-triazol-3-yl)-2-(1H-indol-3-yl)ethyl)pyrazine-2-carboxamide]"
15,35 nM,COc1ccc(Cn2c(CCc3ccccc3)nnc2[C@@H](Cc2c[nH]c3ccccc23)NC(=O)C2CNCCN2)c(OC)c1 (stereo partly shown) [compound 67]
